The values below are quoted from earlier work in patent publication US20240366562A1, “GYNECOMASTIA AND/OR MASTALGIA TREATMENT” (priority 2021, published 2024).

The test system of data set [1] is estrogen pathway.
Data set [2] deals with estrogen-dependent human MCF-7 breast cancer cell line.
Data set [3] concerns the target T1, estrogen receptor (Homo sapiens, UniProt P03372).
T1 sequence (P03372 1-595): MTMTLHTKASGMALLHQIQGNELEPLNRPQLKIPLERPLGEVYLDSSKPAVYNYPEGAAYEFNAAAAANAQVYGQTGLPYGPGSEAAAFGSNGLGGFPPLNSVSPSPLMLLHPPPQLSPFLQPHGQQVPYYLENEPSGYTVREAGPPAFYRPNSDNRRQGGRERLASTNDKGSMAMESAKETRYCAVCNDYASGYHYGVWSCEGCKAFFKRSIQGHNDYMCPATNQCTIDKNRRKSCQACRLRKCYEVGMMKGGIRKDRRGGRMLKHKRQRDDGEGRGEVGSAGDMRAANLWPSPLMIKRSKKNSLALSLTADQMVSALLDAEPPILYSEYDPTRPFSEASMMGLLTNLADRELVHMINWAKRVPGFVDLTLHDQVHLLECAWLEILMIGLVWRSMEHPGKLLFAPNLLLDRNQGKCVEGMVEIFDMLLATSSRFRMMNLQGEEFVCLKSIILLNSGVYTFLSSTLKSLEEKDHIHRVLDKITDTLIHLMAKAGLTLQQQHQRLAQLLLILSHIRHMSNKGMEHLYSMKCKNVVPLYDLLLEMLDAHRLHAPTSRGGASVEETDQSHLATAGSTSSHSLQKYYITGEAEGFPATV

The subject of data set [4] is mammary tumors. The conditions noted are these: rodents.
The conditions of data set [5]: human subjects who ingested I3C.
For data set [6] the following is noted: women taking Tamoxifen.

`OCc1c[nH]c2ccccc12` [Compound I3C, Indole-3-carbinole]: in data set [1], the Competes with estrogen entry was “no”, the “Enhances 2HE1 excretion” value is given as “yes”, the Inhibits estrogen synthesis entry is “yes” and the Lowers circulating estrogen entry is on record as “yes”. Also, the “Triggers degradation of ERα” value in data set [1] is on record as “yes”. Besides, in data set [2], the “Expression of CDK6” value is reported as “down-regulates”. Also, the “Competition with estrogen for estrogen receptor binding” value in data set [3] was “fail to compete”. Besides, in data set [4], the “Formation of spontaneous and carcinogen-induced mammary tumors” value is recorded as “reduce the formation”; the Side effects result is “no apparent side effects”. Moreover, the Side effects result in data set [5] was “no side effects”.
Take `c1ccc2c(Cc3c[nH]c4ccccc34)c[nH]c2c1` [DIM, 3,3′-diindolylmethane]: the Tamoxifen metabolites entry in data set [6] was “decreases in Tamoxifen metabolites”.
On to `CC/C(=C(\c1ccccc1)c1ccc(OCCN(C)C)cc1)c1ccccc1` [Tamoxifen, reference compound], for which, in data set [1], the Competes with estrogen result was “yes”, the “Enhances 2HE1 excretion” value is listed as “no”, the Inhibits estrogen synthesis entry is “no” and the Lowers circulating estrogen result is “no”. The “Triggers degradation of ERα” value in data set [1] is recorded as “no”.
